Assay results: US20120046273A1, “COMPOUNDS AND COMPOSITIONS FOR COGNITION-ENHANCEMENT, METHODS OF MAKING, AND METHODS OF TREATING” (MITHRIDION, INC., priority 2009, published 2012)
Counter-ions that a name gives are not always drawn.

Assays:
rats = assay: Salivary flow in rats dosed orally; assay type: in vivo, rat
rat M1 receptors = biological target: T1, rat M1 receptors (Rattus norvegicus, UniProt P08482); assay: PI turnover (inositol phosphate production) in M1-CHO cells; assay type: cell-based; details: for functional selectivity for M1- versus M3-subtype by PI turnover: cell lines expressing individual subtypes of muscarinic receptors; for M1/CHO PI turnover Relative Mean Smax: relative to mean Smax for carbachol (100.0)
T1 construct: host or cells: Chinese Hamster Ovary cells (M1-CHO)
T1 sequence (P08482 1-460): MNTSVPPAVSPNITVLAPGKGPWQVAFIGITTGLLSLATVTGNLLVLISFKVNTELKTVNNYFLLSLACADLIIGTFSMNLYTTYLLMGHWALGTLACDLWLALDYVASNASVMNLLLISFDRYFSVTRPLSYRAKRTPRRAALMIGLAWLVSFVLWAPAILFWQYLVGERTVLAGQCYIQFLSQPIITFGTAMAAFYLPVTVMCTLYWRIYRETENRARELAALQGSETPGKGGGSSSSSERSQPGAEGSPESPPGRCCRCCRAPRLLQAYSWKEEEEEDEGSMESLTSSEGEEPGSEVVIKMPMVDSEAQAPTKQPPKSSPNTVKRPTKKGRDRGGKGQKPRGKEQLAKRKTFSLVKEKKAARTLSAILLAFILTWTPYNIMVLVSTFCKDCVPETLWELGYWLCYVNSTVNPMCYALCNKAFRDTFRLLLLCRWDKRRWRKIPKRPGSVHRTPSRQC
Protocol: (§1) The medium was changed to 70 μL/well of inositol-free DMEM containing 2 mM glutamine, 10% FBS and 10 μCi/ml of [3H]-inositol (PE:cat # NET114A250UC), incubated overnight as above, then 100 μL of a solution of the test compound in HBSS containing 10 mM LiCl and 20 mM HEPES, pH 7.4 was added, incubation was continued for 60 min under the above conditions, and the test was stopped by removing the test compound and replacing with 100 μL of 50 mM formic acid in water at 4° C.

[1] = Brain concentrations in rats after oral gavage; assay type: in vivo, rat; details: for Brain Cmax (10 mg/kg po) MCD-386 = 1.00: rat, relative to MCD-386; for penetration into the brain: rats after oral dosing
Protocol: Long-Evans Hooded rats (Charles River: male, 250-350 g) were dosed with solutions of test compounds in PBS by oral gavage. At the desired time after dosing, the animals were anesthetized with isoflurane, and then euthanized by cervical dislocation. Blood was obtained by cardiac puncture, transferred to a 1.5 mL microcentrifuge tube containing 15U Heparin, and the plasma recovered after centrifugation. Brains were dissected, weighed, immediately chilled to 4° C., and homogenized using a PowerGen 125 homogenizer in five volumes of ice-cold 2% formic acid. Proteins were precipitated from plasma and brain homogenate with two and five volumes respectively of ice-cold 2% formic acid and clarified by centrifugation. The supernatant was ultra-filtered by centrifugation through a 3K MWCO spin column (Pall Life Sciences), following the manufacturer's instructions. The concentration of compound in the ultra-filtrate was subjected to reverse-phase liquid chromatography using a 150×2.1 mm Agilent C8 reverse-phase column on a Shimadzu Prominence LC, eluting the compounds with a gradient of 2% to 50% of acetonitrile+0.1% formic acid for compound MI-50,382, or an isocratic flow of 2% acetonitrile+0.1% formic acid for the rest of the compounds listed. The concentration of the compound in the column effluent was measured using an Applied Biosystems API-3200 triple quadrupole mass spectrometer equipped with an electrospray sample injection system. The counts of the characteristic parent and product ions of each test compound were converted to concentration units by comparison with a standard calibration curve.

rat M3 receptors = biological target: T2, rat M3 receptors (Rattus norvegicus, UniProt P08483); assay: PI turnover (inositol phosphate production) in M3-CHO cells; assay type: cell-based; details: relative to mean Smax for carbachol (100.0)
T2 construct: host or cells: Chinese Hamster Ovary cells (M3-CHO)
Protocol: as §1

[2] = Metabolites in serum and urine of dosed rats (LC-MS); assay type: in vivo; details: rat serum/plasma or urine, oral dosing; hydrochloride
Protocol: Oxadiazoles disclosed herein as well as other oxadiazoles were investigated to determine the formation of metabolites. Animals were dosed, blood taken, serum prepared, serum proteins precipitated and ultrafiltrates prepared as described in Example 6. In separate experiments, urine was collected from rats for 16-24 hours after dosing, using standard metabolic cages. The urine container and collected urine were maintained at 4° C. Urine was lyophilized, taken back into water. The ultrafiltrate was prepared by adding formic acid to a final concentration of 1% to the urine samples, then filtered through a 0.2 um nylon membrane. The ultrafiltrate was subjected to LC-MS analysis. Instead of measuring the product ions in Q3, manual Q1 scans of the liquid chromatograph were undertaken, seeking parent ions of potential metabolites of the compounds. The criteria for identifying metabolites were as follows: (1) the ion should be present in the sera or urines of dosed rats, but not in sera or urines from non-dosed rats (2) the ion should be identifiable as a metabolic derivative of the dosed compound (e.g. loss of a functional chemical moiety, addition of a hydroxyl group or a glucuronic acid moiety, etc). Metabolites were determined not to be present if no compound meeting the above criteria could be detected in serum or urine.

anesthetized normal rats = assay: In vivo measurement of salivation; parameters: species or system rat
Protocol: Suitable doses of test compounds or drug substances were administered using standard techniques to Long Evans Hooded rats weighing 225 to 350 grams, or CD-1 mice weighing 30 to 50 grams, which had been anesthetized using 2-3.5%% of isoflurane in oxygen. The animals were placed slightly head-down on an inclined, heated ramp. Rectal temperature was monitored using a thermocouple and the temperature of the heating pad was adjusted manually to maintain normal body temperature. Saliva was collected from the mouth by absorption onto pre-weighed slips of filter paper. The filter paper was changed periodically and the amount of saliva was measured by weighing the filter paper slips

anesthetized rats = assay: Salivation on iontophoretic transdermal delivery of agonist and antagonist from one patch; assay type: in vivo, rat; details: patch with 1 mg of 82 plus 0.01mg antagonist
Protocol: Experimental compounds and drug substances were delivered transdermally in rats using iontophoresis as follows. The fur was shaved from the backs of Long Evans Hooded rats weighing 225 to 325 grams, using electric clippers. Experimental compounds and drug substances were formulated at suitable concentrations an aqueous mixture of the following composition:
The polyvinyl alcohol/water was heated to 95 degC. until it became clear, then the other constituents were added and mixed well. The mixture was introduced into suitable molds containing a disc-shaped cavity 2.2 cm diameter and 2.2 mm deep. Molds may be fabricated using two glass sheets separated by a silicone rubber sheet with suitable sized cavities and filling ports cut-outs. The molds were subject to 3 freeze-thaw cycles at −80degC. and 20degC. until a firm cryogel was obtained. The gels were separated from the molds and trimmed into a circular shape. The gel was placed in a silicone rubber casing with one face in contact with a circular silver foil anodic electrode (22 mm dia/250 microns thick), and the assembly was placed on the shaved skin of the rat such that the other face was in contact with the skin on one side of the back of the rat. The rubber casing formed a seal over and around the gel/electrode assembly. […] This was placed on the other side of the shaved back of the rat, the edges of the gel discs being about 20 mm apart at their nearest point. A DC voltage was applied across the two patches from a constant-current DC power supply and the voltage adjusted to obtain the desired current, such that the skin of the animal completed the electrical circuit.
The devices were placed on shaved backs of anesthetized rats and salivation was measured.
The animals were placed slightly head-down on an inclined, heated ramp. Rectal temperature was monitored using a thermocouple and the temperature of the heating pad was adjusted manually to maintain normal body temperature. Saliva was collected from the mouth by absorption onto pre-weighed slips of filter paper. The filter paper was changed periodically and the amount of saliva was measured by weighing the filter paper slips

[3] = test system: hippocampal inositol phosphate signaling pathway; assay: In vivo tissue inositol phosphate signaling pathway activation, hippocampus; parameters: species or system rat; details: 1 mg/kg of 82; NMS 0.1 mg/kg
Protocol: (§2) Experimental compounds or drug substances were administered using standard techniques to Long Evans Hooded rats weighing 225 to 350 grams, and which had been pretreated with a subcutaneous injection of lithium chloride at a suitable dose between 3 and 10 mmoles per kg. At suitable times the animals were briefly anesthetized using 5% isoflurane and euthanized by decapitation. The brains and submaxillary salivary glands were rapidly dissected out, and the hippocampuses were dissected from the brains. The dissected tissues were homogenized in a suitable volume of ice-cold phosphate-buffered saline containing 10 mM lithium chloride, pH7.4, using a tissue homogenizer, and used immediately or frozen in aliquots at −80degC. for future use. The concentration of inositol-1-phosphate was determined in the homogenates using the IPOne TR-FRET assay (CisBio cat no 621PAPEB), following the manufacturer's instruction

[4] = test system: salivary gland inositol phosphate signaling pathway; assay: In vivo tissue inositol phosphate signaling pathway activation, salivary gland; parameters: species or system rat; details: 1 mg/kg of 82
Protocol: as §2

[5] = rat, in vivo, po

T2 sequence (P08483 whole entry): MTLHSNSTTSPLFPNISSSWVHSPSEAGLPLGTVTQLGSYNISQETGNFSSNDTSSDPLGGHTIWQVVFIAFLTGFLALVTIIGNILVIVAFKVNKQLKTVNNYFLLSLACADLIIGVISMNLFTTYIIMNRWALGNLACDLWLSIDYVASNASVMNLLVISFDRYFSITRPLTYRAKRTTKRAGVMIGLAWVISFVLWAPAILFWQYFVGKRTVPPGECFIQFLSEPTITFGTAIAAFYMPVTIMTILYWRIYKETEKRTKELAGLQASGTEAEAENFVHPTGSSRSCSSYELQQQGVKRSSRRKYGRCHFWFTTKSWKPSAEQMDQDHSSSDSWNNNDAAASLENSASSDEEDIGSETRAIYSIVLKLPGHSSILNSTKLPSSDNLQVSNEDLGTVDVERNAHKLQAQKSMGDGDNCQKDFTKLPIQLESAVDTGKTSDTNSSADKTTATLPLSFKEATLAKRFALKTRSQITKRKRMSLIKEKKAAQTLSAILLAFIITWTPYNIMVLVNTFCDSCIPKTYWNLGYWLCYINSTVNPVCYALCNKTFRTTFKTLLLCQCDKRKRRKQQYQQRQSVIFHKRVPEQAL

Structure (SMILES) | functional selectivity for M1- versus M3-subtype by PI turnover (rat M1 receptors) | M1/CHO PI turnover Relative Mean Smax (rat M1 receptors) | Brain Cmax (10 mg/kg po) MCD-386 = 1.00 [1] | penetration into the brain [1] | M3/CHO PI turnover Relative Mean Smax (rat M3 receptors) | Presence of metabolites (10 mg/kg po) [2] | further results
Cl.[2H]C([2H])([2H])c1noc(C2CN=CNC2)n1 (stereo not drawn) [Compound 74, 3-(d3-methyl)-5-(1,4,5,6-tetrahydropyrimidin-5-yl)-1,2,4-oxadiazole hydrochloride] | not selective for the M1 subtype | 98.6 | – | – | – | – | salivary flow (rats): copious salivary flow; agonist efficacy at M1- and M3-subtype muscarinic receptors by PI turnover (rat M1 receptors): near full-agonist
[2H]C([2H])([2H])C([2H])([2H])c1noc(C2CN=CNC2)n1 (stereo not drawn) [Compound 70, 3-(1,1,2,2,2-d5-ethyl)-5-(1,4,5,6-tetrahydropyrimidin-5-yl)-1,2,4-oxadiazole hydrochloride] | M1-subtype functionally selective muscarinic agonists | 67.7 | 0.61 | penetrated into the brain | 16.5 | No metabolites were identified and No | –
[2H]C([2H])([2H])Cc1noc(C2CN=CNC2)n1 (stereo not drawn) [Compound 78, 3-(2,2,2-d3-Ethyl)-5-(1,4,5,6-tetrahydropyrimidin-5-yl)-1,2,4-oxadiazole hydrochloride] | – | 48.9 | – | – | 28.8 | – | –
[2H]C([2H])(C)c1noc(C2CN=CNC2)n1 (stereo not drawn) [Compound 66, 3-(2,2-d2-Ethyl)-5-(1,4,5,6-tetrahydropyrimidin-5-yl)-1,2,4-oxadiazole hydrochloride] | M1-subtype functionally selective muscarinic agonists | 84.0 | 0.82 | penetrated into the brain | 15.1 | No metabolites were identified and No | –
C[N+]1(C)[C@@H]2C[C@@H](OC(=O)[C@H](CO)c3ccccc3)C[C@H]1[C@@H]1O[C@@H]12 [NMS, N-methylscopolamine] | – | – | – | – | – | – | decrease in salivation caused by 82 (anesthetized normal rats; 0.3 mg/kg of 82): dose-dependent decrease in salivation; reduction in salivation caused by MCD-386 (anesthetized normal rats; 1 mg/kg dose of MCD-386): dose-dependent reduction; reduction of salivation caused by transdermal iontophoretic delivery of 82 (anesthetized rats): greatly reduced; inhibition of increase in inositol phosphate in the hippocampus caused by 82 [3]: does not inhibit; block of increase in salivary gland inositol phosphate caused by 82 ([4]; NMS 0.003 mg/kg): some breakthrough activation; block of increase in salivary gland inositol phosphate caused by 82 ([4]; NMS 0.03 mg/kg to 0.01 mg/kg): nearly as effective as 0.1 mg/kg; block of increase in salivary gland inositol phosphate caused by 82 ([4]; antagonist 0.1 mg/kg NMS): completely block
CNC(=C[N+](=O)[O-])NCCSCc1ccc(CN(C)C)o1 [Ranitidine, reference compound] | – | – | – | – | – | – | Brain/plasma ratio [5]: Very low; PAMPA (? × 106): 0.26 ? × 106
